Test results taken from US20070004652A1, “Treatment of occlusive thrombosis” (Mars, Incorporated, priority 2005, published 2007).
Entries after “also recorded” stand apart in the source; their conditions may differ.

Columns and labels:
[1] = test system: tPA release from HUVEC; test: tPA release from HUVEC, tPA activity in culture medium (ELISA-based assay); type: cell-based, human
Description: HUVEC cultures were established as detailed above, by seeding HUVEC into fibronectin-coated 6 well plates at a seeding density of 5000 cells/cm^2. Cells were cultured without sub-culturing using standard cell culture conditions. 50% of the medium was replaced with fresh medium every 24 h. […] The remaining medium was collected and the weight was recorded for subsequent activity calculations (for calculation purposes we assumed that 1 g of medium=1 mL). tPA and PAI release was measured as the activity of the respective proteins in the collected media using an ELISA-based assay [Innovative Research Inc., Southfield, Mich., USA] in accordance with the manufacturer's instructions.

[2] = test system: PAI mRNA expression in human umbilical vein endothelial cells (HUVEC); test: Taqman gene expression assay, PAI mRNA in HUVEC; type: cell-based; conditions: 5 μM, 0.5 to 24 hours, FIG. 1C
Description: (§1) Human umbilical vein endothelial cells (HUVEC) were cultured in an endothelium-specific, 2% serum-containing, growth factor-supplemented, antibiotic-free culture medium. Cryo-preserved cells from a single, donor in passage 1 or 2 were directly seeded into fibronectin-coated 6 well plates at a seeding density of 5000 cells/cm^2 and cultured without sub-culturing using standard cell culture conditions. 50% of the medium was replaced with fresh medium every 24 h until confluence. Cells were treated with the B1 dimer at a final concentration of μ5 M for 0.5, 2, 4, and 24 hours, respectively, and mRNA was isolated with a Qiagen mRNA Isolations System. cDNA was synthesized from mRNA samples using a HPLC-purified T7 Oligo(dT) primer and SuperScript II reverse transcriptase enzyme (Invitrogen). The ensuing cDNA samples were purified using a Qiagen PCR purification system. The cDNA templates were added to standardized Taqmang® Gene Expression Assays (Applied Biosystems) reactions mixtures and a Real-Time PCR was performed using standardized thermo-cycling conditions. An absolute quantification method of analyzing gene expression levels was used on triplicate reactions of each sample, and amplification plots generated by the Applied Biosystems 7900HT Fast Real-Time PCR System were analyzed using ABI Prism SDS v2.1 software.

[3] = test system: uPA mRNA expression in human umbilical vein endothelial cells (HUVEC); test: Taqman gene expression assay, uPA mRNA in HUVEC; type: cell-based; conditions: 5 μM, 0.5 to 24 hours, FIG. 1B
Description: as §1

[4] = test system: plasma tPA; test: Plasma tPA activity after ingestion by human volunteers; type: in vivo; conditions: for plasma tPA activity, time course: non-transformed (raw) data
Description: (§2) The test compound was administered to human volunteers in accordance with IRB-approved protocols and as detailed in the previous section of this report. The activity of tPA, uPA, and PAI in plasma was measured using an ELISA-based assay [Innovative Research Inc., Southfield, Mich., USA] in accordance with the manufacturer's instructions.

[5] = test system: total PAI in HUVEC medium; test: Total PAI (free and tPA/uPA-bound) in HUVEC culture medium; type: cell-based, human; conditions: 24 h, 5 μM as compared to 1 μM, FIG. 3
Description: (§3) HUVEC cultures were established as detailed above, by seeding HUVEC into fibronectin-coated 6 well plates at a seeding density of 5000 cells/cm^2. Cells were cultured without sub-culturing using standard cell culture conditions. 50% of the medium was replaced with fresh medium every 24 h. Following an incubation of the HUVECs with the TC at a concentration of 5 μM for 24 h, an aliquote of the media was collected and analyzed for its content of tPA, and PAI, respectively. The remaining medium was collected and the weight was recorded for subsequent activity calculations (for calculation purposes we assumed that 1 g of medium=1 mL). tPA and PAI release was measured as the activity of the respective proteins in the collected media using an ELISA-based assay [Innovative Research Inc., Southfield, Mich., USA] in accordance with the manufacturer's instructions.

[6] = test system: plasma tPAtotal; test: Plasma tPAtotal (free and bound tPA) after ingestion by human volunteers; type: in vivo; conditions: raw data, One Way ANOVA P=0.769
Description: as §2
In addition to measurements of plasma tPA activity, we determined the amount of tPAtotal in plasma (tPAtotal=free and bound tPA).

[7] = test system: plasma PAI; test: Plasma PAI activity after ingestion by human volunteers; type: in vivo
Description: as §2

[8] = test system: plasma uPA; test: Plasma uPA activity after ingestion by human volunteers; type: in vivo; conditions: raw data
Description: as §2

[9] = test system: human endothelial cells; test: Genomic investigation (Affymetrix microarray, Taqman validation) of gene expression of human endothelial cells; type: cell-based; conditions: human endothelial cells in vitro and human plasma
Description: We have employed a genomic approach to comprehensively investigate the effects of (−)-epicatechin (including a mixture of (−)-epicatechin metabolites), procyanidin dimer B1, and procyanidin dimer A2 on the gene expression of human endothelial cells in vitro. Following the completion of an extensive evaluation utilizing an Affymetrix Oligonucleotide Microarray Gene Expression Analysis System, we have subsequently validated our findings using Taqman® Gene Expression Assays, and confirmed the ensuing data by directly assessing amounts or activities of the target proteins in cultured human endothelial cells and human plasma, respectively.

[10] = Closure time after ingestion by human volunteers; type: in vivo; conditions: FIG. 4
[11] = test system: PAI release from HUVEC; test: PAI activity in HUVEC culture medium (ELISA-based assay); type: cell-based, human; conditions: 24 h, not quite statistically significant (P=0.061, One Way ANOVA)
Description: as §3

[12] = test system: tPA mRNA expression in human umbilical vein endothelial cells (HUVEC); test: Taqman gene expression assay, tPA mRNA in HUVEC; type: cell-based; conditions: 5 μM, 0.5 to 24 hours, FIG. 1A
Description: as §1

Oc1cc(O)c2c(c1)O[C@H](c1ccc(O)c(O)c1)[C@H](O)[C@H]2c1c(O)cc(O)c2c1O[C@H](c1ccc(O)c(O)c1)[C@@H](O)C2 [B1 dimer, procyanidin dimer B1]
increases in media-present tPA activity versus vehicle ([1]; 24 h, 5 μM and 10 μM, One Way ANOVA followed by Tukey Test): significantly different from vehicle treatments
tPA activity in the cell culture medium ([1]; 24 hours of incubation, different concentrations, FIG. 2): dose-dependent increase; also recorded: increase in tPA activity
expression of PAI mRNA [2]: decreases
mRNA expression for uPA [3]: time-dependent increases
increase in tPAmax (mean maximal increase in plasma tPA activity) ([4]; n=4): 46%
mean tPAmax ([4]; n=4): 261.4+/−39.4 mU/mL
plasma tPA activity, time course ([4]; One Way ANOVA P=0.333): time-dependent increase
plasma tPA activity, time course ([4]; One Way ANOVA P=0.333, listed as B1): increases plasma tPA activity
total PAI (free and tPA/uPA-bound) in medium [5]: modulate; also recorded: increase in total PAI
plasma tPAtotal levels, time-dependent change [6]: neither the ingestion of the B1 dimer nor that of the vehicle caused a time-dependent change
plasma PAI activity, time-dependent change ([7]; raw data): did not cause a statistically significant, time-dependant change
PAI plasma activity, normalized to individual baselines ([7]; statistical significance at 4 h post-ingestion (P=0.011, t-test)): time-dependently decreased
plasma uPA activity, time-dependent change [8]: did not cause a statistically significant, time-dependant change
expression, secreting or activity of various proteins related to cardiovascular function [9]: modulated
closure time as compared to vehicle (water) [10]: augmentation of the closure time
activity of PAI in the media [11]: dose-dependant decrease
mRNA expression for tPA [12]: time-dependent increases

Oc1cc(O)c2c(c1)O[C@@]1(c3ccc(O)c(O)c3)Oc3cc(O)c4c(c3[C@@H]2[C@H]1O)O[C@H](c1ccc(O)c(O)c1)[C@H](O)C4 [A2 dimer, epicatechin-(4β→8; 2β→O→7)-epicatechin]
expression, secreting or activity of various proteins related to cardiovascular function [9]: modulated

Oc1cc(O)c2c(c1)O[C@H](c1ccc(O)c(O)c1)[C@H](O)C2 [(−)-epicatechin]
expression, secreting or activity of various proteins related to cardiovascular function [9]: modulated
